Experimental data reported in article PMC11434960, “Evaluation of [^68Ga]Ga-DOTA-AeK as a Potential Imaging Tool for PET Imaging of Cell Wall Synthesis in Bacterial Infections” (Pharmaceuticals, 2024).
Entries after “also recorded” stand apart in the source; their conditions may differ. Where two headings read alike, the source gives them in different places. Starred links: 1 amine or outer side, 2 acyl side, 3 side chain; linkers in the order of their positions; H or OH if unused. Non-standard residues stand in square brackets, D forms with d. Residues, ends and D or L forms follow the SMILES beside them. *: point of attachment. DOTA = O=C(O)CN1CCN(CC(=O)O)CCN(CC(=O)*)CCN(CC(=O)O)CC1; d(γGlu) = O=C(O)[C@@H](CCC(=O)[*:2])N[*:1]

Tests used:
[1] = format: physicochemical
Procedure: The compound hydrophobicity was determined using the octanol–water partition coefficient “shake flask method” described by Lambidis et al.. In brief, 100 µL of purified [^68Ga]Ga-DOTA-AeK was added to 400 µL of ultrapure water. The aqueous solution was added to an equal volume of 1-octanol (Sigma-Aldrich, Darmstadt, Germany), and the mixture was mechanically shaken for approximately 3 min at room temperature. The sample was centrifuged at 16,211 g for 5 min using a Digicen 21 R centrifuge (Orto Alresa, Madrid, Spain). The aqueous and organic phases of the sample were separated, and samples from each phase were analyzed using a dose calibrator. The logarithmic partition coefficient, Log P, was calculated using the following formula:Log P = Log [(counts in octanol/counts in water)](1)

[2] = format: in vitro ADME
Procedure: The plasma protein binding filter assay described by Müller et al. was adopted. Before the experiment, Amicon® Ultra-0.5 centrifugal 10 kDa MWCO filter units (Merck, Darmstadt, Germany) were pre-washed with 200 µL of phosphate-buffered saline (PBS) for 20 min at 18,611 g using the Microfuge 16 centrifuge (Beckman Coulter Life Sciences, Brea, CA, USA). Subsequently, 800 µL of plasma was spiked with 200 µL of purified [^68Ga]Ga-DOTA-AeK, vortexed for 3 s, and incubated for 120 min at 37 °C. For radioanalysis, a 100 µL plasma sample was taken at different time intervals (30, 60, and 120 min), diluted (1:1) with PBS, aliquoted into filter units, and centrifuged at 14,800 rpm for 20 min. A similar procedure was carried out in PBS (140 mM NaCl, 10 mM phosphate buffer, and 3 mM KCl, pH 7.4) as a control. After centrifugation, each filter unit was washed by adding 100 µL of PBS (140 mM NaCl, 10 mM phosphate buffer, and 3 mM KCl, at pH 7.4, and centrifuged as described above. The counts of the filtrate fraction (representing unbound compound) and on the filter (protein-bound compound) were measured using a Capintec Captus 4000E well counter (Florham Park, NJ, USA). The percentage of the protein-bound radiotracer was calculated using the following equation:% Protein bound = [counts in filter ÷ total counts (filtrate fraction+ filter)] × 100(2)

[3] = system: E. coli; assay: Bacterial cell uptake of radiotracer in live and heat-killed cultures; format: cell-based, Escherichia coli; conditions: 37 °C
Procedure: (§1) Overnight bacterial cell cultures of E. coli or S. aureus were grown in Tryptic Soy Broth (TSB) medium at 37 °C. The […] McFarland standard was prepared using DEN-18 McFarland Densitometer (Biosan, Riga, Latvia). For control studies, the same amount of bacterial culture was heat-killed via 30 min incubation at 90 °C. The culture viability was confirmed using agar plating with overnight incubation. All tests were initiated by adding 4.1 ± 1.23 MBq of [^68Ga]Ga-DOTA-AeK product solution (4.86 ± 1.45 GBq/µmol) to 1.0 mL of the bacterial suspension (1.8 × 10^8 cells/mL), and mixtures were maintained while shaking at 37 °C. At specific time intervals (10, 60, and 120 min), samples of the suspension were centrifuged at 16,211 g for 10 min (Digicen 21R, United Scientific, Goodwood, South Africa), and the supernatant was transferred into a plastic tube. The pellet was washed with 3 mL of PBS (140 mM sodium chloride, 10 mM phosphate buffer, and 3 mM potassium chloride, pH 7.4) and centrifuged at 16,211 g for 10 min. […] The radioactivity in the supernatant and pellet fraction were measured using an automatic gamma counter (Hidex AMG, LabLogic, Turku, Finland). The percentile of [^68Ga]Ga-DOTA-AeK cell uptake was calculated as follows:Uptake (%) = [counts in cell pellet ÷ total counts (cell pellet + supernatants)] × 100(3)

[4] = system: S. aureus; assay: as above; format: cell-based, Staphylococcus aureus; conditions: 37 °C
Procedure: as §1

[5] = format: in vivo, BALB/c mice; conditions: mouse, in vivo, iv, Ex vivo organ biodistribution
Procedure: (§2) Six-to-eight-week-old mixed-gender BALB/c mice (20.0 ± 2.1 g) were utilized. Animals were pre-grouped (two mice/cage) into individually ventilated cages (IVC, Tecniplast, Buguggiate, Italy) and kept under standard housing conditions (22 ± 2 °C, 55 ± 10% humidity, 15 ± 5 Pa, and 12 h light/dark cycles) with food and water being provided ad libitum. Each experimental group consisted of 5 animals.
(§3) A thigh muscle mouse model of infection and inflammation was developed for imaging purposes by adopting procedures from a previous study with some modifications. In brief, animals were inoculated intramuscularly (right hind leg) with 1.5 × 10^7 colony forming units (CFU)/mL of S. aureus or E. coli suspended in 100 µL of culture media. To induce sterile inflammation, the same mice received 100 µL of a turpentine oil solution intramuscularly into the left hind leg. Infection was allowed to develop for 3–5 days, which is typical for a model of chronic infections, and a health check, including monitoring of the infection and inflammation sites, was conducted. At 3 and 5 days after the inoculations, all animals underwent whole-body [^68Ga]Ga-DOTA-AeK microPET/CT imaging, and after euthanasia, a complete ex vivo organ tissue biodistribution radioactive assay was performed.
(§4) A total volume of 100 µL of [^68Ga]Ga-DOTA-AeK (7.4 ± 2.0 MBq, 5% EtOH/PBS, pH 7.0) was administered as an intravenous bolus via the tail vein. At the same time, the animals were kept anesthetized, (4% isoflurane in oxygen for induction and 1.5–2.5% for maintenance). Non-invasive, whole-body microPET/CT imaging was performed using a Mediso nanoScan® PET/CT scanner (Budapest, Hungary). A previously described, image acquisition was performed. The PET/CT imaging procedure consisted of static whole-body scans per animal commencing at 60 min post-injection. The imaging protocol included the X-ray topogram (30 s) to ascertain the correct animal placement followed by CT image acquisition (4–5 min) and 20 min long PET image acquisition. Image reconstruction and analysis were performed as previously described.
(§5) After PET/CT imaging, the mice were euthanized via cervical dislocation while still under anesthesia. The different organs (spleen, pancreas, stomach, intestine, kidneys, liver, heart, lung, muscle, and femur) were collected into pre-weighed tubes. The radioactivity of each sample was determined using an automatic gamma counter (Hidex AMG, Turku, Finland). Results were expressed as a percentage of injected dose per gram organ (%ID/g). Subsequently, both muscles on the left and right thighs were fixed in 4% paraformaldehyde and submitted to the University of Pretoria, Department of Paraclinical Science, for hematoxylin and eosin (H&E) and Gram staining. Infection and inflammation tissue analysis was performed by a qualified pathologist.

[6] = system: E. coli; format: in vivo, BALB/c mice
Procedure: as §2, §3, §4, §5

[7] = format: in vivo, BALB/c mice; conditions: mouse, in vivo, iv, Ex vivo organ biodistribution; remark: listed apart in the source
Procedure: as §2, §3, §4, §5

[8] = system: S. aureus; format: in vivo, BALB/c mice
Procedure: as §2, §3, §4, §5

[9] = system: E. coli; assay: Bacterial uptake and incorporation of AeK-NBD, flow cytometry; format: cell-based, Escherichia coli
Procedure: (§6) Bacterial cell cultures (either live or heat-killed) of E. coli or S. aureus (1.0 McFarland standard) were prepared as described above. For bacterial staining, 2.0 μL (100 mM in DMSO) of fluorescent AeK-NBD was added to 198 μL of bacterial culture (7.7 × 10^7 cells/mL), and cells were counterstained with 2.0 μL (10 μM in DMSO) of membrane-permeable DNA Vybrant DyeCycle (VDC) Ruby dye (Thermo Fisher Scientific, Waltham, MA, USA). All cultures were incubated at 37 °C, and samples were taken at different intervals (10, 30, and 60 min) to perform flow cytometric analysis (Cytoflex, Beckman Coulter Life Sciences, Brea, CA, USA). AeK-NBD was excited with a 488 nm laser, and the emitted fluorescence was collected using a 540/30 nm band pass filter, as carried out previously. The VDC Ruby dye was excited with a 638 nm laser, and the emitted fluorescence was collected using a 712/25 nm band pass filter. No noticeable spillover was observed when VDC Ruby ‘only’ and AeK-NBD ‘only’ controls were used as controls for possible fluorescence spillover. […] The NBD-AeK median fluorescence intensity (MFI) of VDC Ruby-positive bacteria was reported. […]
(§7) Sample preparation of E. coli and S. aureus suspensions for confocal fluorescence microscopy imaging involved immediate staining with AeK-NBD and membrane-permeable DNA VDC Ruby dye for 10 min, as described in the previous section. […]

[10] = system: S. aureus; assay: as above; format: cell-based, Staphylococcus aureus
Procedure: as §6, §7

[11] = system: E. coli; parameters: method as in PMID 3891732; conditions: in vitro; cited from earlier work

## C[C@H](N)C(=O)N[C@H](CCC(=O)N[C@@H](CCCCNC(=O)CN1CCN(CC(=O)O)CCN(CC(=O)O)CCN(CC(=O)O)CC1)C(=O)O)C(=O)O [[^68Ga]Ga-DOTA-AeK, metal not drawn] (H-Ala-[d(γGlu)]-Lys(DOTA)-OH)
[1]
  logP: -1.08
[1]; octanol/water partition, n = 3
  tracer recovered within the aqueous phase: 92.3 ± 0.04%
[2]
  protein-bound fraction: approximately 10.18 ± 6.9%
[3]; any time point up to 120 min
  cellular uptake, live versus heat-killed bacteria: No significant increase in radioactivity above the heat-killed bacterial cells
[3]; up to 120 min
  radiotracer detected in the medium: ~ 98%
[4]; any time point up to 120 min
  cellular uptake, live versus heat-killed bacteria: No significant increase in radioactivity above the heat-killed bacterial cells
[4]; up to 120 min
  radiotracer detected in the medium: ~ 98%
[5]; Brain
  tissue uptake at 1 h: 0.1 %ID/g
[5]; Heart
  tissue uptake at 1 h: 0.8 ± 0.4 %ID/g
[5]; Inflammation
  tissue uptake at 1 h: 0.9 %ID/g
[5]; Liver
  tissue uptake at 1 h: 1.1 ± 0.2 %ID/g
[5]; Lungs
  tissue uptake at 1 h: 1 ± 0.1 %ID/g
[5]; Muscle
  tissue uptake at 1 h: 0.7 ± 0.4 %ID/g
[5]; Pancreas
  tissue uptake at 1 h: 0.6 ± 0.3 %ID/g
[5]; Thyroid
  tissue uptake at 1 h: 1 ± 0.7 %ID/g
[6]; E. coli, Day 3 and Day 5 post-inoculation, 60 min after iv injection
  uptake in the infectious foci (PET/CT and ex vivo tissue counting): no significant uptake in the infectious foci
[6]; mouse, in vivo
  clearance route: rapid clearance mainly via renal excretion
[6]; mouse, in vivo, iv, 1 h
  Ex vivo organ biodistribution, Brain: 0.2 ± 0.2 %ID/g
  Ex vivo organ biodistribution, Heart: 1.6 ± 1.3 %ID/g
  Ex vivo organ biodistribution, Kidneys: 2.9 ± 0.7 %ID/g
  Ex vivo organ biodistribution, Liver: 1.2 ± 0.4 %ID/g
  Ex vivo organ biodistribution, Lungs: 2.0 ± 0.4 %ID/g
[7]; Brain
  tissue uptake at 1 h: 0.1 %ID/g
[7]; Intestines
  tissue uptake at 1 h: 1.2 ± 1.9 %ID/g
[7]; Stomach
  tissue uptake at 1 h: 0.7 ± 0.5 %ID/g
[8]; S. aureus, Day 3 and Day 5 post-inoculation, 60 min after iv injection
  uptake in the infectious foci (PET/CT and ex vivo tissue counting): no significant uptake in the infectious foci
[8]; mouse, in vivo
  clearance route: rapid clearance mainly via renal excretion
[8]; mouse, in vivo, iv, 1 h
  Ex vivo organ biodistribution, Adipose: 1.9 ± 0.3 %ID/g
  Ex vivo organ biodistribution, Brain: 0.2 ± 0.0 %ID/g
  Ex vivo organ biodistribution, Femur: 2.0 ± 0.2 %ID/g
  Ex vivo organ biodistribution, Heart: 3.7 ± 0.5 %ID/g
  Ex vivo organ biodistribution, Infection: 0.9 ± 0.3 %ID/g
  Ex vivo organ biodistribution, Intestines: 1.8 ± 0.8 %ID/g
  Ex vivo organ biodistribution, Kidneys: 7.0 ± 0.1 %ID/g
  Ex vivo organ biodistribution, Pancreas: 2.3 ± 0.2 %ID/g
  Ex vivo organ biodistribution, Spleen: 1.6 ± 0.6 %ID/g
  Ex vivo organ biodistribution, Stomach: 1.1 ± 0.4 %ID/g

## L-Ala-γ-D-Glu-L-Lys-N-7-nitro-2,1,3-benzoxadiazol-4-yl [AeK-NBD]
[9]; E. coli, 37 °C
  time at which bacterial incorporation was observed: 10 min
[9]; live E. coli, significantly decreased in heat-killed cultures (p < 0.05), up to 60 min
  fluorescence intensity in live cells (flow cytometry): high fluorescence intensity
[10]; S. aureus, 37 °C
  time at which bacterial incorporation was observed: 10 min
[10]; live S. aureus, significantly decreased in heat-killed cultures (p < 0.05), up to 60 min
  fluorescence intensity in live cells (flow cytometry): high fluorescence intensity

## L-Ala-γ-D-Glu-[^3H]A2pm
[11]
  bacterial uptake / utilisation in PG recycling pathway: successful in vitro integration; also recorded: effectively utilized by E. coli

## ^3H-labeled disaccharide-(L-Ala-D-Glu-meso-A2pm) tripeptide
[11]
  bacterial uptake / utilisation in PG recycling pathway: lack of bacterial uptake and internalization
